These results are taken from patent US10189809B2, “SGC stimulators” (Ironwood Pharmaceuticals, Inc., priority 2010, dated 2019).

pEC50: −log10 of the molar value. Bounds are passed on as bounds.

Assay [1] deals with soluble guanylate cyclase (sGC) (Homo sapiens (Human), UniProt Q02108+Q02153). Kind of assay: sGC-HEK-cGMP assay run with SNP incubation (HEK WC assay). The assay is classed as cell-based. The conditions noted are these: for Emax at 10 µM: read-out: HEK WC Assay (% Emax at 10 μM/with 10 uM SNP); for Emax at 30 µM: read-out: HEK WC Assay (% Emax at 30 μM/with 10 uM SNP). The method, boiled down: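 HEK293 cells with endogenous sGC were pretreated with 0.5 mM IBMX for 15 min at 37 °C, then exposed to test compound plus sodium nitroprusside for 10 min at 37 °C.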
Sequence of soluble guanylate cyclase (sGC) (Q02153 whole entry): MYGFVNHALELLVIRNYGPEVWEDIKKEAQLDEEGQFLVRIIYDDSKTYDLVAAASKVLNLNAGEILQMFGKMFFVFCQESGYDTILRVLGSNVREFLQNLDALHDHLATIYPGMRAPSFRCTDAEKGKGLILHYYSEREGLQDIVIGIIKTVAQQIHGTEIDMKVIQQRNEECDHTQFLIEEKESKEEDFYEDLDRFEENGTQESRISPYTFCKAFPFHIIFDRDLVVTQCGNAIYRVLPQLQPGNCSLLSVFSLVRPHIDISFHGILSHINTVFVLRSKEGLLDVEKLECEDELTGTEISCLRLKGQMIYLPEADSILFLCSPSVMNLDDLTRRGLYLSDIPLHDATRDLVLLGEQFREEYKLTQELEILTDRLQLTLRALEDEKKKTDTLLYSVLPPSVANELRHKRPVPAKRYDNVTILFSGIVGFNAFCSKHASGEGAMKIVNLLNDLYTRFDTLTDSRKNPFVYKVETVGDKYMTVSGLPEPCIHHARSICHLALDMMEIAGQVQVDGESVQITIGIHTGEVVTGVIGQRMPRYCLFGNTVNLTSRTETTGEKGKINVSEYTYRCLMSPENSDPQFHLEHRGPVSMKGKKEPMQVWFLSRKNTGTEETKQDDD
Sequence of soluble guanylate cyclase (sGC) (Q02108 whole entry): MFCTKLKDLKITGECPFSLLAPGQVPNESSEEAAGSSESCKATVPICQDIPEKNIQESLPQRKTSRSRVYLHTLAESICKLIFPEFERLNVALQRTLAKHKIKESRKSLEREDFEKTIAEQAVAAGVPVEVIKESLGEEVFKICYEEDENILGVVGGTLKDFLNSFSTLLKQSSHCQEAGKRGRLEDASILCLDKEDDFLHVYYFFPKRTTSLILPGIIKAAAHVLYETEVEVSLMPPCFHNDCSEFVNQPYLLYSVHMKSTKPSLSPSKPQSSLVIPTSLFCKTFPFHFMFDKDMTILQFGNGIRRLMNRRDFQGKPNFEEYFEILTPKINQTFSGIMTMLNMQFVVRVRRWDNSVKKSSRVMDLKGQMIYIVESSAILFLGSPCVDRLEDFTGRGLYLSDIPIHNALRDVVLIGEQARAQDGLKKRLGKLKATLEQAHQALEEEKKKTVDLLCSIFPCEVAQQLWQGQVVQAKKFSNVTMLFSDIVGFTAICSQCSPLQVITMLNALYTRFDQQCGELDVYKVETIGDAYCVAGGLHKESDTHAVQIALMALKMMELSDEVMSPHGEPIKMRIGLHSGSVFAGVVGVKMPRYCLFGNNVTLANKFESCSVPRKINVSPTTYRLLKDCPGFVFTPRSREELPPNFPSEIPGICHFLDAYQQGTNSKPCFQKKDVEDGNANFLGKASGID

Assay [2] deals with T1, Human soluble guanylate cyclase enzyme (hsGC) (Homo sapiens (Human), UniProt Q02108+Q02153). Kind of assay: Purified human sGC enzyme activity assay. Format: biochemical. The conditions noted are these: 30 μM compound, without the addition of SNP. The method, boiled down: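 Purified human sGC (5 ng) incubated 30 min at 37° C with compound at 10 or 30 μM final in pH 8.0 Tris with 300 μM GTP, 2 mM MgCl2, 2 mM DTT and 1 mM IBMX, then stopped with cold methanol. cGMP quantified against a standard curve. Specific activity (nmol cGMP/mg sGC/min) expressed as fold-change over DMSO control.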
T1 sequence (Q02153 whole entry): as the sequence (Q02153 whole entry) above
T1 sequence (Q02108 whole entry): as the sequence (Q02108 whole entry) above

Assay [3] has as its target T1, Human soluble guanylate cyclase enzyme (hsGC). Put plainly: Purified human sGC enzyme synergy assay in the presence of 1 μM sodium nitroprusside (SNP). Format: biochemical. The conditions noted are these: 30 μM compound, with the addition of SNP. The method, boiled down: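 Purified human sGC (5 ng) incubated 30 min at 37 °C with compounds at 10 or 30 μM, 1 μM sodium nitroprusside, 300 μM GTP and 1 mM IBMX in Tris pH 8.0 with MgCl2/DTT. cGMP quantified against a standard curve, and specific activity expressed as fold-change over DMSO control.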

The next assay concerns Thoracic aortic rings. Put plainly: Alternative thoracic aortic rings assay (Example 19b; resting tension as 100% inhibition). Further details: species or system rat. The conditions noted are these: Table 10A; for Percent Relaxation at 1 μM: printed as number or words instead of code; for inhibition at 3 µM / inhibition at 10 µM / inhibition at 1 µM / pEC50: Rattus norvegicus; for inhibition at 3 µM: read-out: Percent Relaxation at 3 μM; for inhibition at 10 µM: read-out: Percent Relaxation at 10 μM; for inhibition at 1 µM: read-out: Percent Relaxation at 1 μM; for pEC50: read-out: Aortic Ring EC50. The method, boiled down:
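Aortic rings (~2 mm) from male Sprague-Dawley rats (275-299 g) held at 1.0 g resting tension in Krebs-Henseleit at 37 °C under 95% O2/5% CO2, then precontracted with 100 ng/mL phenylephrine. Compounds in DMSO added cumulatively; relaxation recorded by force transducer and EC50 taken from concentration-response curves.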

Consider `COC(=O)Nc1c(N)nc(-c2cc(-c3ccsc3)n(Cc3ccccc3F)n2)nc1N` [Compound I-71], for which, in assay [1], the Emax at 10 µM lay in the range of 10 to 20% and the Emax at 30 µM is 10 to 20%. For the same molecule, the “sGC Enzyme (fold increase at 30 μM)” value in assay [2] is given as “C (C = 5 to <10 fold increase)”. The “sGC Enzyme (fold increase at 30 μM with SNP)” value in assay [3] is “D (D = 10 to <30 fold increase)”. Further, in the assay on Thoracic aortic rings, the “Percent Relaxation at 1 μM” value is recorded as “No relaxation” and the inhibition at 10 µM was 60 to 80%. Besides, in the assay with Thoracic aortic rings (3 μM), the inhibition at 3 µM lay within 10 to 20%.
Take `COC(=O)Nc1c(N)nc(-c2cc(-c3ccccc3)n(Cc3ccccc3F)n2)nc1N` [Compound I-83]: in assay [2], the “sGC Enzyme (fold increase at 30 μM)” value was “D (D = 10 to <30 fold increase)”. Besides, the “sGC Enzyme (fold increase at 30 μM with SNP)” value in assay [3] is recorded as “C (C = 5 to <10 fold increase)”. Further, in the assay with Thoracic aortic rings, the inhibition at 1 µM fell in the range of 10 to 20%; the inhibition at 10 µM lay within 60 to 80%; the pEC50 (as a rule, −log10 of the EC50, conventionally taken in molar units) was 5.10 to 5.40. In addition, in the assay with Thoracic aortic rings (3 μM), the inhibition at 3 µM is 20 to 40%.
Take `COC(=O)N(C)c1c(N)nc(-c2cc(-c3ccccc3)n(Cc3ccccc3F)n2)nc1N` [Compound I-84]: the “sGC Enzyme (fold increase at 30 μM)” value in assay [2] is listed as “C (C = 5 to <10 fold increase)”. In assay [3], the “sGC Enzyme (fold increase at 30 μM with SNP)” value is “B (B = 2 to <5 fold increase)”. In the assay on Thoracic aortic rings, the “Percent Relaxation at 1 μM” value is reported as “no relaxation”, the inhibition at 10 µM was 20 to 40% and the pEC50 is 4.92 to 5.10. Moreover, in the assay on Thoracic aortic rings (3 μM, printed as words instead of code), the “Percent Relaxation at 3 μM” value is recorded as “no relaxation”.
As for `Cc1nc2c(N)nc(-c3cc(-c4nccs4)n(Cc4ccccc4F)n3)nc2[nH]1` [Compound I-95], in assay [1], the Emax at 10 µM was 10 to 20% and the Emax at 30 µM was 20 to 40%. Also, in assay [2], the “sGC Enzyme (fold increase at 30 μM)” value was “A (A = no increase to <2 fold increase)”. Moreover, the “sGC Enzyme (fold increase at 30 μM with SNP)” value in assay [3] was “C (C = 5 to <10 fold increase)”.
Turning to `Cn1c(=O)[nH]c2nc(-c3cc(-c4nccs4)n(Cc4ccccc4F)n3)nc(N)c21` [Compound I-96], in assay [1], the Emax at 10 µM fell in the range of 20 to 40% and the Emax at 30 µM lay in the range of 20 to 40%. Also, in assay [2], the “sGC Enzyme (fold increase at 30 μM)” value is “B (B = 2 to <5 fold increase)”. Moreover, the “sGC Enzyme (fold increase at 30 μM with SNP)” value in assay [3] is listed as “C (C = 5 to <10 fold increase)”.
Consider `Cn1c(=O)[nH]c2nc(-c3cc(-c4ncco4)n(Cc4ccccc4F)n3)nc(N)c21` [Compound I-101, 6-amino-2-(1-(2-fluorobenzyl)-5-(oxazol-2-yl)-1H-pyrazol-3-yl)-7-methyl-7H-purin-8(9H)-one], for which, in assay [1], the Emax at 10 µM lay within 60 to 80% and the Emax at 30 µM was in the range of 20 to 40%. Besides, the “sGC Enzyme (fold increase at 30 μM)” value in assay [2] is listed as “B (B = 2 to <5 fold increase)”. In assay [3], the “sGC Enzyme (fold increase at 30 μM with SNP)” value is “D (D = 10 to <30 fold increase)”.
For `Nc1cc(N)nc(-c2cc(-c3ccon3)n(Cc3ccccc3F)n2)n1` [Compound I-103, 2-(1-(2-fluorobenzyl)-5-(isoxazol-3-yl)-1H-pyrazol-3-yl)pyrimidine-4,6-diamine] the same measures were 20 to 40%, 20 to 40%, “A (A = no increase to <2 fold increase)” and “B (B = 2 to <5 fold increase)”.
For `Nc1nc(-c2cc(-c3ccon3)n(Cc3ccccc3F)n2)ncc1C1CC1` [Compound I-104] the same measures were 40 to 60%, greater than 120%, “B (B = 2 to <5 fold increase)” and “C (C = 5 to <10 fold increase)”.
In the case of `CC(C)(C)OC(=O)Nc1cnc(-c2cc(-c3ccon3)n(Cc3ccccc3F)n2)nc1N` [Compound I-106], in assay [2], the “sGC Enzyme (fold increase at 30 μM)” value is on record as “D (D = 10 to <30 fold increase)”. For the same molecule, the “sGC Enzyme (fold increase at 30 μM with SNP)” value in assay [3] is reported as “D (D = 10 to <30 fold increase)”. Besides, in the assay on Thoracic aortic rings, the inhibition at 1 µM was 20 to 40%, the inhibition at 10 µM is 100 to 120% and the pEC50 was greater than 5.70. For the same molecule, the inhibition at 3 µM with Thoracic aortic rings (3 μM) was 60 to 80%.
Turning to `Cl.Nc1cnc(-c2cc(-c3ccon3)n(Cc3ccccc3F)n2)nc1N` [Compound I-107, 2-(1-(2-fluorobenzyl)-5-(isoxazol-3-yl)-1H-pyrazol-3-yl)pyrimidine-4,5-diamine hydrochloride], in assay [1], the Emax at 10 µM was in the range of 60 to 80% and the Emax at 30 µM was in the range of 0 to 10%. For the same molecule, in assay [2], the “sGC Enzyme (fold increase at 30 μM)” value was “B (B = 2 to <5 fold increase)”. Also, the “sGC Enzyme (fold increase at 30 μM with SNP)” value in assay [3] was “C (C = 5 to <10 fold increase)”.
The like results for `Nc1nc(-c2cc(-c3ccon3)n(Cc3ccccc3F)n2)ncc1-c1nccs1` [Compound I-108] were, in that order, 20 to 40%, 20 to 40%, “A (A = no increase to <2 fold increase)” and “B (B = 2 to <5 fold increase)”.
The like results for `Cc1cc(N)nc(-c2cc(-c3ccon3)n(Cc3ccccc3F)n2)n1` [Compound I-111] were, in that order, 60 to 80%, 40 to 60%, “B (B = 2 to <5 fold increase)” and “C (C = 5 to <10 fold increase)”.
The like results for `Nc1nc(-c2cc(-c3ccon3)n(Cc3ccccc3F)n2)ncc1C(F)(F)F` [Compound I-113] were, in that order, 20 to 40%, 40 to 60%, “A (A = no increase to <2 fold increase)” and “C (C = 5 to <10 fold increase)”.
As to `CC(C)(C)c1cnc(-c2cc(-c3ccon3)n(Cc3ccccc3F)n2)nc1N` [Compound I-114], in assay [1], the Emax at 10 µM was 40 to 60% and the Emax at 30 µM is 40 to 60%. The “sGC Enzyme (fold increase at 30 μM)” value in assay [2] was “B (B = 2 to <5 fold increase)”. For the same molecule, the “sGC Enzyme (fold increase at 30 μM with SNP)” value in assay [3] is reported as “D (D = 10 to <30 fold increase)”.
With `Nc1cc(-c2cccnc2)nc(-c2cc(-c3ccon3)n(Cc3ccccc3F)n2)n1` [Compound I-116], in assay [1], the Emax at 10 µM is 20 to 40% and the Emax at 30 µM was in the range of 20 to 40%. Moreover, the “sGC Enzyme (fold increase at 30 μM)” value in assay [2] is recorded as “B (B = 2 to <5 fold increase)”. Besides, the “sGC Enzyme (fold increase at 30 μM with SNP)” value in assay [3] was “C (C = 5 to <10 fold increase)”.
As for `CS(=O)(=O)c1cnc(-c2cc(-c3ccon3)n(Cc3ccccc3F)n2)nc1N` [Compound I-120], in assay [1], the Emax at 10 µM was in the range of 0 to 10% and the Emax at 30 µM lay within 0 to 10%. Also, the “sGC Enzyme (fold increase at 30 μM)” value in assay [2] is “A (A = no increase to <2 fold increase)”. In addition, the “sGC Enzyme (fold increase at 30 μM with SNP)” value in assay [3] is recorded as “C (C = 5 to <10 fold increase)”.
In the case of `Nc1nc(-c2cc(-c3ccon3)n(Cc3ccccc3F)n2)ncc1-c1ccccc1` [Compound I-122], in assay [1], the Emax at 10 µM was in the range of 20 to 40% and the Emax at 30 µM was in the range of 60 to 80%. Also, the “sGC Enzyme (fold increase at 30 μM)” value in assay [2] is “C (C = 5 to <10 fold increase)”. Further, the “sGC Enzyme (fold increase at 30 μM with SNP)” value in assay [3] is on record as “D (D = 10 to <30 fold increase)”.
Turning to `Nc1nc(-c2cc(-c3ccon3)n(Cc3ccccc3F)n2)ncc1-c1cccnc1` [Compound I-127], in assay [1], the Emax at 10 µM is 60 to 80% and the Emax at 30 µM lay in the range of 60 to 80%. Further, the “sGC Enzyme (fold increase at 30 μM)” value in assay [2] is “C (C = 5 to <10 fold increase)”. The “sGC Enzyme (fold increase at 30 μM with SNP)” value in assay [3] is “D (D = 10 to <30 fold increase)”.
As for `Nc1nc(-c2cc(-c3ccon3)n(Cc3ccccc3F)n2)ncc1-c1ccccn1` [Compound I-128], in assay [1], the Emax at 10 µM is 60 to 80% and the Emax at 30 µM was in the range of 40 to 60%. The “sGC Enzyme (fold increase at 30 μM)” value in assay [2] was “B (B = 2 to <5 fold increase)”. Also, the “sGC Enzyme (fold increase at 30 μM with SNP)” value in assay [3] is listed as “C (C = 5 to <10 fold increase)”.
For `CCOC(=O)c1cnc(-c2cc(-c3ccon3)n(Cc3ccccc3F)n2)nc1N` [Compound I-131] the same measures were 60 to 80%, 40 to 60%, “B (B = 2 to <5 fold increase)” and “D (D = 10 to <30 fold increase)”.
The like results for `Nc1nc(-c2cc(-c3ccon3)n(Cc3ccccc3F)n2)ncc1C(=O)O` [Compound I-132] were, in that order, 40 to 60%, 20 to 40%, “B (B = 2 to <5 fold increase)” and “C (C = 5 to <10 fold increase)”.
The like results for `CC(C)(O)c1cnc(-c2cc(-c3ccon3)n(Cc3ccccc3F)n2)nc1O` [Compound I-133] were, in that order, 20 to 40%, 40 to 60%, “A (A = no increase to <2 fold increase)” and “B (B = 2 to <5 fold increase)”.
